Measured values taken from ChEMBL document CHEMBL3774347, “Docking and Linking of Fragments To Discover Jumonji Histone Demethylase Inhibitors” (J Med Chem, 2016).

Columns and labels:
[1] = target: T1, Lysine-specific demethylase 4C (Homo sapiens, UniProt Q9H3R0); assay: Inhibition of N-terminal His6-tagged KDM4C (1 to 352 residues) (unknown origin) expressed in Escherichia coli Rosetta 2(DE3)pLysS using biotinylated histone H3 (1 to 21 residues) lysine 9 trimethylated peptide/2 uM alpha-ketoglutarate as substrate/cofactor measured after 45 mins by TR-FRET assay; conditions: read-out: IC50
T1 sequence (Q9H3R0 whole entry): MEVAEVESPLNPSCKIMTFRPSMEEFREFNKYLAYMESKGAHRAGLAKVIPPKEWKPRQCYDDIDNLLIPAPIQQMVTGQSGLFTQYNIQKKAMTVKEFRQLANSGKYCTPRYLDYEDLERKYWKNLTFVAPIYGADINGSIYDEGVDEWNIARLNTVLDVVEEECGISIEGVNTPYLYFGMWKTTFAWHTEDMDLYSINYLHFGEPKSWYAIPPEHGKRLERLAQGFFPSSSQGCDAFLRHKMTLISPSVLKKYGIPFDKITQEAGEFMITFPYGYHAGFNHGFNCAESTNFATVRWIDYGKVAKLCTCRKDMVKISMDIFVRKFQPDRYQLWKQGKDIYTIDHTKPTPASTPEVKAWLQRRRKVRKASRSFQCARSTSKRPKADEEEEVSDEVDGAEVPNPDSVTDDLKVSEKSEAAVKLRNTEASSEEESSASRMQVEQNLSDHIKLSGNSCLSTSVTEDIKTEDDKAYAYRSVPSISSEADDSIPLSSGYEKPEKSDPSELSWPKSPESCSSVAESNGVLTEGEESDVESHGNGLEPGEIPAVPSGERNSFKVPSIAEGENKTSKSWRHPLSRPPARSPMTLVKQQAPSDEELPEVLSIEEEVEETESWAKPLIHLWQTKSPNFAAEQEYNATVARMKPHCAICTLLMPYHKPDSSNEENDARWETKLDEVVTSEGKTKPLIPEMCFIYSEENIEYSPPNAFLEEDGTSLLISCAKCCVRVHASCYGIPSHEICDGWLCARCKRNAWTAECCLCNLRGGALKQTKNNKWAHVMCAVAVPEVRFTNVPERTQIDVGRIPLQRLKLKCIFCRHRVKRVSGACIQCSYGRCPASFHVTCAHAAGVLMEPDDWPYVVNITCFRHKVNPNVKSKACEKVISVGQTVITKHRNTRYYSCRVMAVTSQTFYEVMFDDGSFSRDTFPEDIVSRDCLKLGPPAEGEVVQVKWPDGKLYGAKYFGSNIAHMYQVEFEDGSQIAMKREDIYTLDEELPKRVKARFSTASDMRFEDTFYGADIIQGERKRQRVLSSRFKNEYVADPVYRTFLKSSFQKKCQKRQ

[2] = target: Hypoxia-inducible factor 1-alpha inhibitor (Homo sapiens, UniProt Q9NWT6); assay: Inhibition of N-terminal His6-tagged full-length FIH (unknown origin) expressed in Escherichia coli Rosetta 2(DE3)pLysS using SMDESGLPQLTSYDCEVNAPIQGSRNLLQGEELLRALDQVN peptide/100 uM alpha-ketoglutarate as substrate/cofactor incubated for 45 mins by MALDI assay
Hypoxia-inducible factor 1-alpha inhibitor, sequence (Q9NWT6 whole entry, the tested form may be a part): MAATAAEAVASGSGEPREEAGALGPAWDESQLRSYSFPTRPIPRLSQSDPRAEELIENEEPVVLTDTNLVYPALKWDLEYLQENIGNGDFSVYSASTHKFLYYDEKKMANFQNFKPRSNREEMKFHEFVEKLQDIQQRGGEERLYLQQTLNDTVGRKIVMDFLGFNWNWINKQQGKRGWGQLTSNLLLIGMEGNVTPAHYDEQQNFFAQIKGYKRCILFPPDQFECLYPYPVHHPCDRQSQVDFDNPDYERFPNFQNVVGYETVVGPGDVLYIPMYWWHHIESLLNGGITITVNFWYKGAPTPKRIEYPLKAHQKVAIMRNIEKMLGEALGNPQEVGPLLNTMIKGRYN

[3] = target: T1, Lysine-specific demethylase 4C; assay: Inhibition of N-terminal His6-tagged KDM4C (1 to 352 residues) (unknown origin) expressed in Escherichia coli Rosetta 2(DE3)pLysS using biotinylated histone H3 (1 to 21 residues) lysine 9 trimethylated peptide/50 uM alpha-ketoglutarate as substrate/cofactor measured after 45 mins by TR-FRET assay; conditions: read-out: IC50
[4] = target: T1, Lysine-specific demethylase 4C; assay: Inhibition of N-terminal His6-tagged KDM4C (1 to 352 residues) (unknown origin) expressed in Escherichia coli Rosetta 2(DE3)pLysS using biotinylated peptide/ 2 uM alpha-ketoglutarate as substrate/cofactor preincubated for 15 mins followed by substrate addition measured after 15 mins by alphascreen assay
[5] = target: Lysine-specific demethylase 5B (Homo sapiens, UniProt Q9UGL1); assay: Inhibition of KDM5B (unknown origin) expressed in Escherichia coli using H3 (1 to 21 residues) K4Me3-GGK-Biotin KDM5B Cognate Ligand/10 uM alpha-ketoglutarate as substrate/cofactor preincubated for 5 mins followed by substrate addition measured after 20 mins by alphascreen assay
[6] = target: Lysine-specific demethylase 6B (Homo sapiens, UniProt O15054); assay: Inhibition of KDM6B (unknown origin) expressed in Escherichia coli using H3 (21 to 44 residues) K27Me3-GGK-Biotin JMJD3 Cognate Ligand/10 uM alpha-ketoglutarate as substrate/cofactor preincubated for 5 mins followed by substrate addition measured after 5 mins by alphascreen assay
Lysine-specific demethylase 6B, sequence (O15054 whole entry, the tested form may be a part): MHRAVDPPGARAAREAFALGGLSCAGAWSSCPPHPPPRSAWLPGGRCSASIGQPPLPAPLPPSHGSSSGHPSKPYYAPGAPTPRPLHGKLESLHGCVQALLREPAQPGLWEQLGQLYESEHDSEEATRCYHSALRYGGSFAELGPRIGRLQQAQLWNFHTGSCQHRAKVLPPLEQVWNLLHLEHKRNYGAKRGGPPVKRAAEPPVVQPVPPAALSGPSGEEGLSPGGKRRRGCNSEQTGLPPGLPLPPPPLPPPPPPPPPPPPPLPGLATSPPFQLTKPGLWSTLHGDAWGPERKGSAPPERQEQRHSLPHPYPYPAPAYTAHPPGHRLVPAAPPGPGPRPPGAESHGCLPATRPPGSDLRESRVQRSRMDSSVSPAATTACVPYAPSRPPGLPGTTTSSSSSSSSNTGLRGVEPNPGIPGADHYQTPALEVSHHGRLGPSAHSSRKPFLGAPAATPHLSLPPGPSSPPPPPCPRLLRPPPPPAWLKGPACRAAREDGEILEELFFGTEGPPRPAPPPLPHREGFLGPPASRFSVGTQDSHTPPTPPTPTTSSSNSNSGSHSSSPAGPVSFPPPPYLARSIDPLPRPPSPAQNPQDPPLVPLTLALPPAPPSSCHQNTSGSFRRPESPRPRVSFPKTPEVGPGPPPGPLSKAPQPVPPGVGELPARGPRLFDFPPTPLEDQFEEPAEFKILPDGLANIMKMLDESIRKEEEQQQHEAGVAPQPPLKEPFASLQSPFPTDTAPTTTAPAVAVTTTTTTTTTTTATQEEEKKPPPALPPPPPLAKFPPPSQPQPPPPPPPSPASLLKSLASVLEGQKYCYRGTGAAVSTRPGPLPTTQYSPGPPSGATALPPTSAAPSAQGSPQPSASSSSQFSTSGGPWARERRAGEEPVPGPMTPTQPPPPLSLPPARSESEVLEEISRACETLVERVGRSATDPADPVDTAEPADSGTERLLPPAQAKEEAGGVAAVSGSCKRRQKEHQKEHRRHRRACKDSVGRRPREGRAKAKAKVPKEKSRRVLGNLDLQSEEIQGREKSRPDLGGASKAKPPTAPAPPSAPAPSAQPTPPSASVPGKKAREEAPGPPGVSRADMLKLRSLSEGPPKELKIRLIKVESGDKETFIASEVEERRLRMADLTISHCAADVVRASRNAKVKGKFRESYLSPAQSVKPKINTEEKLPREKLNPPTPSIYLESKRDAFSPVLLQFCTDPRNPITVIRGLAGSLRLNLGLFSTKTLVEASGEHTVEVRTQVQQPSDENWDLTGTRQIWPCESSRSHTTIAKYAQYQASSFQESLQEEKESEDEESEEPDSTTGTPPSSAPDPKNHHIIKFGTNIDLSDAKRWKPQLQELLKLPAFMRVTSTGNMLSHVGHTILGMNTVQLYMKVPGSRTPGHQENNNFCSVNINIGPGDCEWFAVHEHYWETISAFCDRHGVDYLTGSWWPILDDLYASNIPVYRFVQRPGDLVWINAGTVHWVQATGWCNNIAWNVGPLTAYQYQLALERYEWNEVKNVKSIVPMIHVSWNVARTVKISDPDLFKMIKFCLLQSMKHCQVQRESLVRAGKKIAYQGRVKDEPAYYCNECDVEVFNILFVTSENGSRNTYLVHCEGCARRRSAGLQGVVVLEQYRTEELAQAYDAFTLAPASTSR

[7] = target: Lysine-specific demethylase 5A (Homo sapiens, UniProt P29375); assay: Inhibition of KDM5A (1 to 797 residues) (unknown origin) expressed in insect sf21 cells using ARTK(Me3)QTARKSTGGKAPRK peptide/ 100 uM alpha-ketoglutarate as substrate/cofactor incubated for 45 mins by MALDI assay
Lysine-specific demethylase 5A, sequence (P29375 whole entry, the tested form may be a part): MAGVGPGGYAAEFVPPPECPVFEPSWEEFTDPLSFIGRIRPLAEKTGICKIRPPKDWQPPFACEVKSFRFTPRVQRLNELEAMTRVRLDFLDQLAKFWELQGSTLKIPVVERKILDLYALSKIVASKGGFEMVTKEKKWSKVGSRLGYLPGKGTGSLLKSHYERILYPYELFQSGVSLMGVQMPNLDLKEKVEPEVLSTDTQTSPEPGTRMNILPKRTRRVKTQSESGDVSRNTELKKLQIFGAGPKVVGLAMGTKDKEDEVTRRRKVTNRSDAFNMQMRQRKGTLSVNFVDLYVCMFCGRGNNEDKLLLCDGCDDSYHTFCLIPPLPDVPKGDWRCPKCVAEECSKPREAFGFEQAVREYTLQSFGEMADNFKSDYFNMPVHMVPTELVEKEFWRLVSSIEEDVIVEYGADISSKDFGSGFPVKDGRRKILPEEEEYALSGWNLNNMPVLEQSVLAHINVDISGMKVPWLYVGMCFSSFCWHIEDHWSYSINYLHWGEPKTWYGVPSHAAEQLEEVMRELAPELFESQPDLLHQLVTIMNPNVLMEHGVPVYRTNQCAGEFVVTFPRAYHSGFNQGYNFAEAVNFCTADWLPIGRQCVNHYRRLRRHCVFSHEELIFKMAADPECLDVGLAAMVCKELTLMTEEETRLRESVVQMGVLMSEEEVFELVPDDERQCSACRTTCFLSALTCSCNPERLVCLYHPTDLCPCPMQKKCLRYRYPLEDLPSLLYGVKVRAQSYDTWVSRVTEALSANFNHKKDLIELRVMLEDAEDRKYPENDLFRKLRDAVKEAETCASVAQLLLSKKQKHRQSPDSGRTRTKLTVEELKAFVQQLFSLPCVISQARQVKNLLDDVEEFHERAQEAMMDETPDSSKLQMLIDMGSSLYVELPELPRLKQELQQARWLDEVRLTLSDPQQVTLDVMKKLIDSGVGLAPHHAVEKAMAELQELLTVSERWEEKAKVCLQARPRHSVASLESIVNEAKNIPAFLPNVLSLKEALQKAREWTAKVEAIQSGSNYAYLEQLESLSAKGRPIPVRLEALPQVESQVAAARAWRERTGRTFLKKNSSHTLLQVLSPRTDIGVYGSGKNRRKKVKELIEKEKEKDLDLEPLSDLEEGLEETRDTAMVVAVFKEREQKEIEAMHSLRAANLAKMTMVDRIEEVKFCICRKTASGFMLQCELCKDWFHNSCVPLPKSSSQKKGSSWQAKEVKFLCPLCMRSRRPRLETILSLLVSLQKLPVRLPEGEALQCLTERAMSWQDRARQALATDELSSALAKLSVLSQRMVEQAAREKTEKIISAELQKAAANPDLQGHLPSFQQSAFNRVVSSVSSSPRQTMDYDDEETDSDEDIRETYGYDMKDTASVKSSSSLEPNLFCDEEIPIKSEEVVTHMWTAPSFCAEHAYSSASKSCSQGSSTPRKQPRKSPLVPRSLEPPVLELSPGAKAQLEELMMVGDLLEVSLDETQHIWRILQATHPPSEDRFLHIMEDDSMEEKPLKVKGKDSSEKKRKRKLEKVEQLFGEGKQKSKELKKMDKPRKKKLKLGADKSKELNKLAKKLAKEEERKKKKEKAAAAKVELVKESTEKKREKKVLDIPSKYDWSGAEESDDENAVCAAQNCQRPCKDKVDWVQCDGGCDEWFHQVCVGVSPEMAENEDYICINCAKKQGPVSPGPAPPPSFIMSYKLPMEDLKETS

| Structure (SMILES) | IC50 [1] | IC50 [2] | IC50 [3] | IC50 [4] | IC50 [5] | IC50 [6] | IC50 [7] |
| --- | --- | --- | --- | --- | --- | --- | --- |
| Cc1cc(C(=O)Nc2ccc(O)c(-c3cc(C(=O)O)ccn3)c2)no1 | 0.065 µM | 473 µM | 5 µM | 5.5 µM | 2.7 µM | 31 µM | 23 µM |
| COc1cccc(CC(=O)Nc2ccc(O)c(-c3cc(C(=O)O)ccn3)c2)c1 | 0.14 µM | > 500 µM | 1.5 µM | 9.9 µM | 22 µM | 16 µM | 52 µM |
| CC(=O)Nc1ccc(O)c(-c2cc(C(=O)O)ccn2)c1 | 1.2 µM | > 500 µM | 40 µM | 15 µM | 72 µM | > 100 µM | 240 µM |
| COCC(=O)Nc1ccc(O)c(-c2cc(C(=O)O)ccn2)c1 | 0.14 µM | > 500 µM | 7.4 µM | 3.8 µM | 12 µM | > 100 µM | 180 µM |
| O=C(O)c1ccnc(-c2cc(NC(=O)c3ccc(O)cc3)ccc2O)c1 | 0.064 µM | > 500 µM | 2.6 µM | 12 µM | 19 µM | 27 µM | 45 µM |
